Results: patent US6680334B2, “Crystalline material” (Pfizer Inc, priority 2001, dated 2004)
Converted amounts (≈) assume the structure as drawn.

Key:
[1] = Solubility in aqueous buffers of different pH; type: physicochemical; conditions: for solubility: aqueous buffer
[2] = type: physicochemical
Method: The stability of crystalline amlodipine free base bulk and amlodipine free base tablets was assessed by storing samples for up to 6 or 12 weeks at 25° C./60% RH, 40° C./75% RH and 50° C./20% RH. Changes were monitored using a stability-indicating HPLC method. Results were calculated by normalised peak area (npa). Degradants were identified by comparison of their relative retention times against impurity standards.

**Q.** Which solubility ([1]; pH 1.2, simulated gastric fluid, SGN pH: 1.20) does the source give for `CCOC(=O)C1=C(COCCN)NC(C)=C(C(=O)OC)C1c1ccccc1Cl` (racemic) [Example 2, Amlodipine] here?
**A.** > 5000 µg/mL

**Q.** And the solubility ([1]; Acetate pH: 5.93)?
**A.** > 5000 µg/mL

**Q.** And the solubility ([1]; Glycine pH: 9.25)?
**A.** 130 µg/mL (≈ 318 µM)

**Q.** What about the solubility ([1]; NaOH pH: 11.44) of the same molecule?
**A.** < 50 µg/mL

**Q.** What about the solubility ([1]; Phosphate pH: 7.71) of the same molecule?
**A.** 720 µg/mL (≈ 1760 µM)

**Q.** Which “Stability with respect to formation of known and unknown degradants” value [2] does the source give for `CCOC(=O)C1=C(COCCN)NC(C)=C(C(=O)OC)C1c1ccccc1Cl` (stereo not shown) [crystalline amlodipine free base, 2-[(2-aminoethoxy)]-methyl-4-(2-chlorophenyl)-3-ethoxycarbonyl-5-methoxycarbonyl-6-methyl-1,4-dihydropyridine] here?
**A.** stability was demonstrated

**Q.** With `CCOC(=O)C1=C(COCCN)NC(C)=C(C(=O)OC)C1c1ccccc1Cl` (stereo not shown) [solid free base initially synthesised, Amlodipine, reference compound] as the molecule, how does the “Solubility (in words)” value ([1]; solid free base initially synthesised in-house, no conditions given) read?
**A.** poorly soluble
